Laboratory results from US20250170141A1, “MRGPRX2 MODULATORS AND RELATED METHODS OF TREATMENT” (Escient Pharmaceuticals, Inc., priority 2023, published 2025).

target: T1, human MRGPRX2 (Homo sapiens, UniProt Q96LB1); test: MRGPRX2 activity: IP-One Gq HTRF assay in CHO cells, antagonism versus 0.3 uM Cortistatin-14; assay type: cell-based; settings: versus 0.3 uM Cortistatin-14 agonist, CHO cells expressing human MRGPRX2, read-out: MRGPRX2 Antagonist Activity
T1 construct: expressed in transfected cells; host or cells: CHO cells, stably transfected (G418 and Hygromycin B selection)
T1 sequence (Q96LB1 1-330): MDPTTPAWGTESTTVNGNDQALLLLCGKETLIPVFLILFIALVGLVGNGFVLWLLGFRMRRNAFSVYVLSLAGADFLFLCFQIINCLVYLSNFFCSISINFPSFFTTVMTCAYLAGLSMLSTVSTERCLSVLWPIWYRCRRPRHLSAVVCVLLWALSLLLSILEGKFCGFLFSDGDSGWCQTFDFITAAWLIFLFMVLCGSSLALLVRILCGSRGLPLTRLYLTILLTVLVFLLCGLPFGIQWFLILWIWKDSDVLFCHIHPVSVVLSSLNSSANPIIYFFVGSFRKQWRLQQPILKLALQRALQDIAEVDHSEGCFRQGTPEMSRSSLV
Outline: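 Antagonist IC50 was derived from the HTRF IP-1 signal after co-addition of compounds (10 points, top 30 uM, 3-fold steps) and 0.3 μM Cortistatin-14 agonist to human MRGPRX2-expressing CHO cells. Assay buffer contained 50 mM LiCl, pH 8; plates sat 1 h at 37 °C, then 1 h at room temperature.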

Row | Compound | IC50 [nM]
1 | O=S1(=O)N=C(NCc2ccncc2F)Nc2c(Cc3ccccc3Cl)cccc21 [Compound 12-23, 5-(2-chlorobenzyl)-3-(((3-fluoropyridin-4-yl)methyl)amino)-4H-benzo[e][1,2,4]thiadiazine 1,1-dioxide] | < 100
2 | COc1cc(C)ccc1CNC1=NS(=O)(=O)c2cccc(Cc3ccccc3Cl)c2N1 [Compound 12-15, 5-(2-chlorobenzyl)-3-((2-methoxy-4-methylbenzyl)amino)-4H-benzo[e][1,2,4]thiadiazine 1,1-dioxide] | 100 to 500
3 | Cc1ccccc1CNC1=NS(=O)(=O)c2cccc(Cc3ccccc3Cl)c2N1 [Compound 12-19, 5-(2-chlorobenzyl)-3-((2-methylbenzyl)amino)-4H-benzo[e][1,2,4]thiadiazine 1,1-dioxide] | < 100
4 | O=S1(=O)N=C(NCc2ccc(F)cc2F)Nc2c(Cc3ccccc3Cl)cccc21 [Compound 12-11, 5-(2-chlorobenzyl)-3-((2,4-difluorobenzyl)amino)-4H-benzo[e][1,2,4]thiadiazine 1,1-dioxide] | < 100
5 | Cc1cccc(Cc2cccc3c2NC(NCc2ccccc2F)=NS3(=O)=O)c1 [Compound 6-10, 3-((2-fluorobenzyl)amino)-5-(3-methylbenzyl)-4H-benzo[e][1,2,4]thiadiazine 1,1-dioxide] | < 100
6 | O=S1(=O)N=C(NCc2ccccc2F)Nc2c(Cc3ccc(Cl)cc3)cccc21 [Compound 6-13, 5-(4-chlorobenzyl)-3-((2-fluorobenzyl)amino)-4H-benzo[e][1,2,4]thiadiazine 1,1-dioxide] | 100 to 500
7 | O=S1(=O)N=C(NCc2cccc(F)n2)Nc2c1ccc(F)c2Oc1ccccc1Cl [Compound 2-4, 5-(2-chlorophenoxy)-6-fluoro-3-(((6-fluoropyridin-2-yl)methyl)amino)-4H-benzo[e][1,2,4]thiadiazine 1,1-dioxide] | < 100
8 | Cc1ccc(C(C)c2c(F)ccc3c2NC(NCc2cccc(F)c2)=NS3(=O)=O)cn1 (stereo not shown) [Compound 22-24, 6-fluoro-3-((3-fluorobenzyl)amino)-5-(1-(6-methylpyridin-3-yl)ethyl)-4H-benzo[e][1,2,4]thiadiazine 1,1-dioxide] | < 100
9 | C[C@H](c1ccccc1F)c1c(F)ccc2c1NC(NCc1ccc(F)cc1F)=NS2(=O)=O [Compound 24-2, (R)-3-((2,4-difluorobenzyl)amino)-6-fluoro-5-(1-(2-fluorophenyl)ethyl)-4H-benzo[e][1,2,4]thiadiazine 1,1-dioxide] | < 100
10 | N#Cc1ccc2c(c1Oc1ccccc1Cl)NC(NCc1ncccc1F)=NS2(=O)=O [Compound 3-2, 5-(2-chlorophenoxy)-3-(((3-fluoropyridin-2-yl)methyl)amino)-4H-benzo[e][1,2,4]thiadiazine-6-carbonitrile 1,1-dioxide] | < 100
11 | COc1ccc(Cc2cccc3c2NC(NCc2ccccc2F)=NS3(=O)=O)cc1 [Compound 6-15, 3-((2-fluorobenzyl)amino)-5-(4-methoxybenzyl)-4H-benzo[e][1,2,4]thiadiazine 1,1-dioxide] | 100 to 500
12 | Cc1c(F)cccc1CNC1=NS(=O)(=O)c2ccc(F)c(C(C)c3ccccc3F)c2N1 (stereo not shown) [Compound 9-6, 6-fluoro-3-((3-fluoro-2-methylbenzyl)amino)-5-(1-(2-fluorophenyl)ethyl)-4H-benzo[e][1,2,4]thiadiazine 1,1-dioxide] | < 100
13 | COc1cccc(C(C)c2c(F)ccc3c2NC(NCc2cccc(F)c2)=NS3(=O)=O)n1 (stereo not shown) [Compound 22-6, 6-fluoro-3-((3-fluorobenzyl)amino)-5-(1-(6-methoxypyridin-2-yl)ethyl)-4H-benzo[e][1,2,4]thiadiazine 1,1-dioxide] | < 100
14 | O=S1(=O)N=C(NCc2ncccc2F)Nc2c(Cc3ccccc3Cl)cccc21 [Compound 12-2, 5-(2-chlorobenzyl)-3-(((3-fluoropyridin-2-yl)methyl)amino)-4H-benzo[e][1,2,4]thiadiazine 1,1-dioxide] | < 100
15 | O=S1(=O)N=C(NCc2ccccc2F)Nc2c(Cc3c(Cl)cccc3Cl)cccc21 [Compound 6-5, 5-(2,6-dichlorobenzyl)-3-((2-fluorobenzyl)amino)-4H-benzo[e][1,2,4]thiadiazine 1,1-dioxide] | < 100
16 | Cc1ccc2c(c1Oc1ccccc1Cl)NC(NCc1ncccc1F)=NS2(=O)=O [Compound 1-4, 5-(2-chlorophenoxy)-3-(((3-fluoropyridin-2-yl)methyl)amino)-6-methyl-4H-benzo[e][1,2,4]thiadiazine 1,1-dioxide] | < 100
17 | CC(c1cccc(OC(F)(F)F)c1)c1c(F)ccc2c1NC(NCc1cccc(F)c1)=NS2(=O)=O (stereo not shown) [Compound 22-14, 6-fluoro-3-((3-fluorobenzyl)amino)-5-(1-(3-(trifluoromethoxy)phenyl)ethyl)-4H-benzo[e][1,2,4]thiadiazine 1,1-dioxide] | 100 to 500
18 | N#Cc1ccccc1Oc1c(F)ccc2c1NC(NCc1ncccc1F)=NS2(=O)=O [Compound 1-8, 2-((6-fluoro-3-(((3-fluoropyridin-2-yl)methyl)amino)-1,1-dioxido-4H-benzo[e][1,2,4]thiadiazin-5-yl)oxy)benzonitrile] | < 100
19 | O=S1(=O)N=C(NCc2ncccc2F)Nc2c(Oc3ccccc3Cl)c(Cl)cc(F)c21 [Compound 1-42, 6-chloro-5-(2-chlorophenoxy)-8-fluoro-3-(((3-fluoropyridin-2-yl)methyl)amino)-4H-benzo[e][1,2,4]thiadiazine 1,1-dioxide] | 100 to 500
20 | O=S1(=O)N=C(NCc2ccccc2F)Nc2c(Cc3ccccc3F)cccc21 [Compound 6-6, 5-(2-fluorobenzyl)-3-((2-fluorobenzyl)amino)-4H-benzo[e][1,2,4]thiadiazine 1,1-dioxide] | < 100
21 | CCC(c1ccccc1F)c1c(F)ccc2c1NC(NCc1ncccc1F)=NS2(=O)=O (stereo not shown) [Compound 20-1, 6-fluoro-5-(1-(2-fluorophenyl)propyl)-3-(((3-fluoropyridin-2-yl)methyl)amino)-4H-benzo[e][1,2,4]thiadiazine 1,1-dioxide] | < 100
22 | O=S1(=O)N=C(NCc2ccccc2F)Nc2c1cc(F)c(F)c2Cc1ccccc1Cl [Compound 4-6, 5-(2-chlorobenzyl)-6,7-difluoro-3-((2-fluorobenzyl)amino)-4H-benzo[e][1,2,4]thiadiazine 1,1-dioxide] | 100 to 500
23 | O=S1(=O)N=C(NCc2cccc(F)c2)Nc2c1cc(F)c(F)c2Cc1ccccc1Cl [Compound 4-12, 5-(2-chlorobenzyl)-6,7-difluoro-3-((3-fluorobenzyl)amino)-4H-benzo[e][1,2,4]thiadiazine 1,1-dioxide] | 100 to 500
24 | CC(c1ccccc1F)c1c(F)c(F)cc2c1NC(NCc1ncccc1F)=NS2(=O)=O (stereo not shown) [Compound 9-7, 6,7-difluoro-5-(1-(2-fluorophenyl)ethyl)-3-(((3-fluoropyridin-2-yl)methyl)amino)-4H-benzo[e][1,2,4]thiadiazine 1,1-dioxide] | < 100
25 | O=S1(=O)N=C(NCc2ccccc2C(F)(F)F)Nc2c1cc(F)c(F)c2Oc1ccccc1Cl [Compound 1-22, 5-(2-chlorophenoxy)-6,7-difluoro-3-((2-(trifluoromethyl)benzyl)amino)-4H-benzo[e][1,2,4]thiadiazine 1,1-dioxide] | 100 to 500
